Drawing on US20060079453A1, “Hla binding peptides and their uses” (priority 2002, published 2006), this text covers IC50 for 28 molecules.

Some targets named below: HLA-B*4001 (Homo sapiens, UniProt P01889, A65T/A93T/A95T/D138N/D98Y/E176V/E69K/N87E/Q56L/Q94N/R180L/S121R/S35A/S48T/T167S/V36M/W171L/Y33H/Y91S); HLA-B*4002 (Homo sapiens, UniProt P01889, A65T/A93T/A95T/D138N/D201E/D98Y/E176V/E204Q/E69K/K202T/N87E/Q56L/Q94N/R180L/S48T/Y33H/Y91S); HLA-B*4501 (Homo sapiens, UniProt P01889, A329T/A65T/A93T/A95T/C349S/D138N/D201E/D98Y/E176V/E187L/E204Q/E69K/H137Y/K202T/L119W/N87E/Q56L/Q94N/R155S/R180D/S121R/S35A/S48T/V127L/V306I/V36M/W191S/Y140L/Y33H/Y91S); HLA-B*1801 (Homo sapiens, UniProt P01889, A329T/A93T/A95T/C349S/D201E/D54G/D98Y/E176V/E187T/E204Q/E69T/K202T/Q94N/R155S/R180L/S121R/V306I/Y140S/Y195H/Y33H/Y91S); HLA-B*4402 (Homo sapiens, UniProt P01889, A223V/A65T/A93T/A95T/D201E/D98Y/E176V/E187L/E204Q/E69K/G107R/H137Y/K202T/L105A/L119I/N104T/N87E/Q56L/Q94N/R106L/R155S/R180D/S101N/S121R/S35A/S48T/T118I/V36M/W191S/Y140D/Y91S); HLA-B*4403 (Homo sapiens, UniProt P01889, A223V/A65T/A93T/A95T/D201E/D98Y/E176V/E187L/E204Q/E69K/G107R/H137Y/K202T/L105A/L119I/N104T/N87E/Q56L/Q94N/R106L/R155S/R180L/S101N/S121R/S35A/S48T/T118I/V36M/W191S/Y140D/Y91S); HLA-DR DRB1*0301 (DR3) (Homo sapiens, UniProt P01903+P01911, A100K/A102G/A103R/A169T/F55Y/I96L/K41T/L162R/M171V/P40S/Q125H/Q178H/Q39Y/R42S/S66N/T106N/T262R/W38E/Y61H); HLA-DR DRB1*0802 (DR8) (Homo sapiens, UniProt P01903+P01911, A100R/A103L/A169T/F76Y/H45Y/I96F/K41T/L162R/M171V/P40S/Q125H/Q178H/Q39Y/Q99D/R218S/R42G/S66Y/V115G/W38E); HLA-DR DRB3*0101 (DR52) (Homo sapiens, UniProt P01903+P79483).

What all share (assay): biochemical
What all share (type): binding

For the next test, the target named is HLA-DR DRB1*0101 (DR1) (Homo sapiens, UniProt P01903+P01911, A100R/D57E/F55L/F60I/F76Y/I96L/L162R/M171V/P40L/Q125E/R42F/V115G/Y59C). Particulars: DRB1 *0101.
In the next test the target is HLA-DR DRB1*0401 (DR4) (Homo sapiens, UniProt P01903+P01911, A100K/A169T/F76Y/I96L/K127E/L162R/M171V/N62H/P40V/Q125Y/R42H/S133A/S149N/S66Y/V115G/V209L/W38E). The note with it: DRB1 *0401.
The target of a further test is HLA-DR DRB1*0405 (DR4) (Homo sapiens, UniProt P01903+P01911, A100R/A169T/D86S/F76Y/I96L/K127E/L162R/M171V/N62H/P40V/Q125Y/R42H/S133A/S149N/S66Y/V115G/V209L/W38E). Particulars: DRB1 *0405.
The target in another test is HLA-DR DRB1*0701 (DR7) (Homo sapiens, UniProt P01903+P01911, A100R/A102G/A103Q/D57E/D86V/E43K/F76Y/K127E/L162R/M171V/P40G/Q125H/Q99D/R33Q/R42Y/R54Q/S133A/S66F/T210M/V115G/Y107V/Y59L/Y89S). Particulars: DRB1 *0701.
The target of another test is HLA-DR DRB1*0901 (DR9) (Homo sapiens, UniProt P01903+P01911, A100R/A103E/D57H/D86V/F55Y/F60I/F76Y/I96F/K127E/L162R/M171V/P40D/Q125H/Q99R/R33Q/R42F/S133A/S66N/T210M/V115G/W38K/Y107V/Y59G/Y89S). Particulars: DRB1 *0901.
A further test deals with HLA-DR DRB1*1101 (DR11) (Homo sapiens, UniProt P01903+P01911, A100R/A169T/A87E/I96F/K41T/L162R/M171V/P40S/Q125H/Q178H/Q39Y/Q99D/R42S/S66Y/T262R/V115G/W38E). The note with it: DRB1 *1101.
Chain of HLA-DR DRB1*1101 (DR11) (P01903 26-254 limits assumed, other chains not shown): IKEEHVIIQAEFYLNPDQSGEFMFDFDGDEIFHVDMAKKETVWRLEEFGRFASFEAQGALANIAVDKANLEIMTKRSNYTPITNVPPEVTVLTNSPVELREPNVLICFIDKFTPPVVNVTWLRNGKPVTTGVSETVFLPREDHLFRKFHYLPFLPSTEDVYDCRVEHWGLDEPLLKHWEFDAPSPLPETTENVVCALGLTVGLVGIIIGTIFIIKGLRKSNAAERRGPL
In the next test the target is HLA-DR DRB1*1302 (DR13) (Homo sapiens, UniProt P01903+P01911, A100E/A169T/K41T/L162R/M171V/P40S/Q125H/Q178H/Q39Y/Q99D/R42S/S66N/T262R/V115G/W38E/Y61H). Particulars: DRBI *1302.
Chain of HLA-DR DRB1*1302 (DR13) (P01903 26-254 limits assumed, other chains not shown): as above
In the next test the target is HLA-DR DRB1*1501 (DR15) (Homo sapiens, UniProt P01903+P01911). Particulars: DRBI *1501.
For a further test, the target named is HLA-DR DRB5*0101 (DR51) (Homo sapiens, UniProt P01903+Q30154). The note with it: DRB5 *0101.

Where two headings read alike, the source gives them in different places. No end group written: not given here.

Chain of HLA-DR DRB1*0301 (DR3) (P01903 26-254 limits assumed, other chains not shown): as above

In the case of AENFWVTVY, the values for the 50% inhibitory concentration (IC50) against HLA-B*4001, against HLA-B*4002 and against HLA-B*4501 were 1390 nM, 542 nM and 289 nM, respectively.
On to AEPAAEGVGA, for which the 50% inhibitory concentration (IC50) against HLA-B*1801 is more than 8120 nM; at HLA-B*4001, 4120 nM; against HLA-B*4402, more than 22600 nM; on HLA-B*4501, 104 nM.
As for AEPLWVTVY, the IC50 was 310 nM on HLA-B*1801, 1730 nM against HLA-B*4001, 2480 nM against HLA-B*4002 and 96 nM against HLA-B*4403.
Take AEKLWVTVY: the figures for the concentration for half-maximal inhibition (IC50) at HLA-B*4001, against HLA-B*4402 and against HLA-B*4501 were 18300 nM, 168 nM and 219 nM, respectively.
For the molecule AENLWKTVY, the IC50 at HLA-B*1801 was determined as 913 nM; on HLA-B*4001, 850 nM; on HLA-B*4002, 406 nM; on HLA-B*4403, 383 nM.
Turning to AEFLWVTVY, the concentration for half-maximal inhibition (IC50) at HLA-B*1801 turned out to be 131 nM; at HLA-B*4001 it was 183 nM; on HLA-B*4002 it was 240 nM; against HLA-B*4402, 1010 nM; on HLA-B*4501 it was 472 nM.
Take LWQLNGRLEYTLKDR: the half-maximal inhibitory concentration (IC50) is 0.11 nM at HLA-B*4403 (B*4403); 698 nM on HLA-DR DRB1*0101 (DR1); 511 nM on HLA-DR DRB1*0301 (DR3); 757 nM at HLA-DR DRB1*0401 (DR4); 94 nM against HLA-DR DRB1*0405 (DR4); 20200 nM against HLA-DR DRB1*0701 (DR7). Moreover, the IC50 on HLA-DR DRB1*0802 (DR8) amounted to 43300 nM; against HLA-DR DRB1*0901 (DR9) it was 16600 nM; at HLA-DR DRB1*1101 (DR11) it was 6520 nM; against HLA-DR DRB1*1302 (DR13), 2450 nM; on HLA-DR DRB1*1501 (DR15), 853 nM; on HLA-DR DRB3*0101 (DR52) it was 4400 nM. At HLA-DR DRB5*0101 (DR51), 6000 nM corresponded to half-maximal inhibition (IC50).
AENLWVTLY: the IC50 against HLA-B*1801 was determined as 392 nM; at HLA-B*4002 it was 731 nM; against HLA-B*4402, 199 nM; against HLA-B*4501, 349 nM.
Regarding AENLWVTVS, the half-inhibitory concentration (IC50) turned out to be 25700 nM against HLA-B*1801, 4220 nM against HLA-B*4402 and 34 nM at HLA-B*4501.
Consider AEIPTRVNY, for which the half-inhibitory concentration (IC50) came to 1690 nM at HLA-B*1801 (B*1801), 7830 nM on HLA-B*4001 (B*4001), 5440 nM against HLA-B*4002 (B*4002) and 23 nM against HLA-B*4403 (B*4403).
Regarding AENVWVTVY, the concentration for half-maximal inhibition (IC50) at HLA-B*4001 was determined as 2240 nM; on HLA-B*4002 it was 386 nM; against HLA-B*4501, 737 nM.
With AENLWVTVT, the IC50 is 947 nM against HLA-B*4001, 7.8 nM on HLA-B*4002, 2700 nM on HLA-B*4402 and 10 nM on HLA-B*4501.
Turning to `CC[C@H](C)[C@H](NC(=O)[C@@H](NC(=O)[C@H](CS)NC(=O)[C@@H](NC(=O)[C@@H]1CCCN1C(=O)[C@@H]1CCCN1C(=O)[C@H](CCC(N)=O)NC(=O)[C@@H]1CCCN1C(=O)[C@H](CC(C)C)NC(=O)[C@H](CCCNC(=N)N)NC(=O)[C@H](CCC(=O)O)NC(=O)CN)[C@@H](C)CC)[C@@H](C)O)C(=O)O`, the 50% inhibitory concentration (IC50) against HLA-B*4002 (B*4002) was determined as 3.9 nM; against HLA-B*4403 (B*4403) it was 2.5 nM.
As for QEILDLWVY, the half-inhibitory concentration (IC50) at HLA-B*1801 (B*1801) stood at 52 nM; on HLA-B*4001 (B*4001), 740 nM; at HLA-B*4002 (B*4002), 4520 nM; against HLA-B*4402 (B*4402) it was 264 nM; against HLA-B*4501 (B*4501) it was 6260 nM.
For the molecule AEPAAEGVGAV, the IC50 is more than 8610 nM against HLA-B*1801, 20400 nM against HLA-B*4001, more than 23900 nM at HLA-B*4402 and 1500 nM at HLA-B*4501.
Turning to AENLWVTNY, the half-maximal inhibitory concentration (IC50) on HLA-B*1801 stood at 730 nM; on HLA-B*4001 it was 865 nM; against HLA-B*4002, 948 nM; against HLA-B*4403 it was 74 nM.
With IEDPPYNSL, the 50% inhibitory concentration (IC50) against HLA-B*1801 amounted to 35500 nM; at HLA-B*4001 it was 16 nM; against HLA-B*4002 it was 688 nM; against HLA-B*4501, 18700 nM.
In the case of DEIGVIDLY, the IC50 was more than 114000 nM at HLA-B*4001 (B*4001), more than 77300 nM at HLA-B*4002 (B*4002), 707 nM against HLA-B*4402 (B*4402) and more than 49000 nM at HLA-B*4501 (B*4501).
For AENLFVTVY, the IC50 came to 29 nM on HLA-B*1801, 970 nM at HLA-B*4001, 334 nM against HLA-B*4002 and 232 nM against HLA-B*4501.
For the molecule AENLWVTVH, the IC50 against HLA-B*4001 was 493 nM; against HLA-B*4002, 151 nM; against HLA-B*4501, 120 nM.
Take AENLPVTVY: the IC50 stood at 20 nM against HLA-B*1801, 205 nM against HLA-B*4001, 356 nM at HLA-B*4402 and 246 nM against HLA-B*4501.
For AENLWVTKY, the IC50 against HLA-B*1801 was found to be 511 nM; at HLA-B*4001, 1010 nM; at HLA-B*4002, 2000 nM; on HLA-B*4501, 201 nM.
Turning to AENLWVTVG, the IC50 against HLA-B*1801 was found to be 39700 nM; on HLA-B*4001, 861 nM; against HLA-B*4002 it was 47 nM; against HLA-B*4501 it was 35 nM.
With KENLWVTVY, the concentration for half-maximal inhibition (IC50) was 184 nM against HLA-B*1801; 2740 nM against HLA-B*4001; 373 nM against HLA-B*4002; 308 nM at HLA-B*4402; 6220 nM against HLA-B*4501.
AENLWVTDY: the half-inhibitory concentration (IC50) against HLA-B*1801 came out at 1000 nM; against HLA-B*4001 it was 930 nM; on HLA-B*4402, 191 nM; on HLA-B*4501, 328 nM.
On to ADLMGYIPL, for which the half-maximal inhibitory concentration (IC50) is more than 7620 nM against HLA-B*1801 (B*1801); 959 nM on HLA-B*4001 (B*4001); 4.7 nM at HLA-B*4002 (B*4002); more than 21400 nM against HLA-B*4402 (B*4402); more than 49000 nM against HLA-B*4501 (B*4501).
For the molecule AENLWVTVV, the IC50 at HLA-B*1801 worked out at 10700 nM; at HLA-B*4001, 84 nM; on HLA-B*4002, 19 nM; against HLA-B*4402 it was 5760 nM; against HLA-B*4501 it was 35 nM.
For YEDLRVLSF, the IC50 came out at 20 nM against HLA-B*1801; 67 nM on HLA-B*4001; 71 nM at HLA-B*4002; 24 nM at HLA-B*4402; 18700 nM on HLA-B*4501.

By IC50 is commonly meant the midpoint of a concentration-inhibition curve. A lower IC50 goes with inhibition by little substance.
